{
  "source": "ChEMBL document CHEMBL3616434",
  "about": "“Identification of Phenoxyalkylbenzimidazoles with Antitubercular Activity” (J Med Chem, 2015)",
  "key": {"[1]": {"experiment": "Thermodynamic equilibrium solubility of the compound using 10 mM DMSO at pH 2", "format": "physicochemical", "conditions": "buffer, read-out: Therm_solubility"}, "[2]": {"tested_on": "Mycobacterium tuberculosis", "experiment": "Bactericidal activity against replicating Mycobacterium tuberculosis at 1 to 10 times MIC after 21 days", "format": "functional, organism-based"}, "[3]": {"experiment": "Thermodynamic equilibrium solubility of the compound using 10 mM DMSO at pH 6", "format": "physicochemical", "conditions": "buffer, read-out: Therm_solubility"}, "[4]": {"tested_on": "Mycobacterium tuberculosis", "experiment": "Bactericidal activity against nonreplicating Mycobacterium tuberculosis assessed as log reduction CFU at MIC after 21 days", "format": "functional"}, "[5]": {"tested_on": "Mycobacterium tuberculosis", "experiment": "Bactericidal activity against nonreplicating Mycobacterium tuberculosis assessed as log reduction CFU at 1 to 10 times MIC after 21 days", "format": "functional"}, "[6]": {"tested_on": "Mycolicibacterium smegmatis", "experiment": "Antimicrobial activity against Mycobacterium smegmatis MC2 155 after 5 to 7 days by serial proportion method", "format": "functional", "conditions": "str. MC2 155"}, "MDCK": {"tested_on": "MDCK", "experiment": "Passive permeability of the compound from apical to basolateral direction in MDCK cells at 10 uM in presence of P-gp inhibitor", "format": "ADME, cell-based, Canis lupus familiaris", "conditions": "dog"}, "[7]": {"tested_on": "Mycobacterium tuberculosis", "experiment": "Antitubercular activity against Mycobacterium tuberculosis H37Rv ATCC 25618 under aerobic condition after 5 days", "format": "functional", "conditions": "H37Rv ATCC 25618, 120 h"}, "[8]": {"experiment": "Metabolic stability of the compound in human liver microsomes assessed as compound turnover at 2 uM after 30 mins by LC-MS analysis", "format": "ADME", "conditions": "read-out: Drug metabolism"}, "Staphylococcus aureus": {"tested_on": "Staphylococcus aureus", "experiment": "Antimicrobial activity against Staphylococcus aureus after 2 days by serial proportion method", "format": "functional", "conditions": "48 h"}, "[9]": {"experiment": "Metabolic stability of the compound in rat liver microsomes assessed as compound turnover at 2 uM after 30 mins by LC-MS analysis", "format": "ADME", "conditions": "read-out: Drug metabolism"}, "[10]": {"experiment": "Selectivity index, ratio of TC50 for African green monkey Vero cells to MIC for Mycobacterium tuberculosis H37Rv ATCC 25618"}, "[11]": {"experiment": "Thermodynamic equilibrium solubility of the compound using 10 mM DMSO at pH 7.4", "format": "physicochemical", "conditions": "buffer, read-out: Therm_solubility"}, "[12]": {"experiment": "Fraction unbound in mouse plasma after 4.5 hrs by LC-MS/MS analysis", "format": "ADME, cell-free"}, "[13]": {"experiment": "Cytotoxicity against African green monkey Vero cells after 2 days by luminescent assay", "format": "cell-based", "conditions": "chlorocebus sabaeus, read-out: TC50"}, "[14]": {"tested_on": "Mycobacterium tuberculosis", "experiment": "Antitubercular activity against Mycobacterium tuberculosis after 21 to 28 days by serial proportion method", "format": "functional"}, "[15]": {"experiment": "Metabolic stability of the compound in mouse liver microsomes assessed as compound turnover at 2 uM after 30 mins by LC-MS analysis", "format": "ADME", "conditions": "read-out: Drug metabolism"}, "Escherichia coli": {"tested_on": "Escherichia coli", "experiment": "Antimicrobial activity against Escherichia coli after 1 day by serial proportion method", "format": "functional", "conditions": "24 h"}, "[16]": {"tested_on": "Mycobacterium tuberculosis", "experiment": "Bactericidal activity against replicating Mycobacterium tuberculosis assessed as log reduction CFU at 1 to 10 times MIC after 21 days", "format": "functional"}, "[17]": {"tested_on": "Mycobacterium tuberculosis", "experiment": "Ratio of MBC to MIC for replicating Mycobacterium tuberculosis at 1 to 10 times MIC after 21 days", "format": "functional"}, "[18]": {"tested_on": "Mycobacterium tuberculosis", "experiment": "Antitubercular activity against Mycobacterium tuberculosis H37Rv", "format": "functional"}},
  "note": "Active and inactive are the calls of the source. The rule behind the calls is not given here.",
  "data": [
    {"smiles": "CCc1nc2ccccc2n1CCCCSc1nnc(-c2ccc(Cl)cc2)o1", "values": [
      {"measurement": "solubility thermodynamic", "setting": "[1]", "value": 830, "unit": "µg/mL"},
      {"measurement": "Activity", "setting": "[2]", "value": "inactive"},
      {"measurement": "solubility thermodynamic", "setting": "[3]", "value": "< 1", "unit": "µg/mL"},
      {"measurement": "FC", "setting": "[4]", "value": ">3"},
      {"measurement": "FC", "setting": "[5]", "value": ">3"},
      {"measurement": "MIC99", "setting": "[6]", "value": "> 100", "unit": "µM"},
      {"measurement": "permeability", "setting": "MDCK", "value": 4.4, "unit": "%"},
      {"measurement": "MIC", "setting": "[7]", "value": 0.1, "unit": "µM"},
      {"measurement": "metabolised at 0.5 h, 2 µM", "setting": "[8]", "value": 99.9, "unit": "%"},
      {"measurement": "MIC99", "setting": "Staphylococcus aureus", "value": "> 100", "unit": "µM"},
      {"measurement": "metabolised at 0.5 h, 2 µM", "setting": "[9]", "value": 99.9, "unit": "%"},
      {"measurement": "Ratio", "setting": "[10]", "value": 220},
      {"measurement": "solubility thermodynamic", "setting": "[11]", "value": "< 1", "unit": "µg/mL"},
      {"measurement": "fraction unbound at 4.5 h", "setting": "[12]", "value": 0.006},
      {"measurement": "CC50 at 48 h", "setting": "[13]", "value": 22, "unit": "µM"},
      {"measurement": "MIC99", "setting": "[14]", "value": 2.5, "unit": "µM"},
      {"measurement": "metabolised at 0.5 h, 2 µM", "setting": "[15]", "value": 99.8, "unit": "%"},
      {"measurement": "MIC99", "setting": "Escherichia coli", "value": "> 100", "unit": "µM"}
    ]},
    {"smiles": "CCc1nc2ccccc2n1CCCOc1ccccc1", "values": [
      {"measurement": "FC", "setting": "[4]", "value": ">3"},
      {"measurement": "FC", "setting": "[5]", "value": ">3"},
      {"measurement": "FC", "setting": "[16]", "value": 2},
      {"measurement": "MIC", "setting": "[7]", "value": 5.2, "unit": "µM"},
      {"measurement": "Ratio", "setting": "[10]", "value": ">9.6"},
      {"measurement": "Ratio", "setting": "[17]", "value": ">4"},
      {"measurement": "CC50 at 48 h", "setting": "[13]", "value": "> 50", "unit": "µM"},
      {"measurement": "MIC", "setting": "[18]", "value": 3.4, "unit": "µM"}
    ]}
  ]
}
